Key:
Type in all cases: cell-based, human
BEAS-2B cells [1] = assay: Seahorse Cell Mito stress test (OCR); settings: for ATP production / basal respiration / maximal respiration: after exposure to PM2.5 from both Taiyuan and Guangzhou (200 μg/mL), metabolite 200 μM
Method: (§1) To detect the cell viability, different concentrations (25 μM, 50 μM, 100 μM, and 200 μM) of selected metabolic markers were added to BEAS-2B cell cultures for 24 h, followed by 200 μg/mL PM2.5 samples for another 24 h. After exposure, 10 μL CCK-8 with 100 μL mediums were added to the cells and incubated for 1.5 h, the absorption was detected at 450 nm to assess cell viability. Agilent Seahorse assays were used to evaluate the effects of metabolic markers on mitochondrial functions. The OCR of cells was determined after being treated by both metabolic markers (200 μM) and PM2.5 samples (200 μg/mL) (n=3).
(§2) Cell Mito stress test: BEAS-2B cells were seeded in the XF 96-well Seahorse assay miniplates with a density of 20,000 cells/well in BEGM™ bronchial epithelial cell growth medium and incubated for 24 h at 37° C. After exposure, the cells were washed with XF assay medium including 10 mM glucose, 1 mM sodium pyruvate, and 2 mM L-glutamine (adjusted pH to 7.4 with 0.1 M NaOH) and incubated for 1 h in a 37° C. non-CO2 incubator. Before assay, the sensor cartridge was hydrated in Agilent Seahorse XF Calibrant at 37° C. in a non-CO2 incubator overnight, and oligomycin (port A final 1 μM), carbonyl cyanide-4-(trifluoromethoxy) phenylhydrazone (FCCP) (port B final 1 μM chosen from the optimization assay) and rotenone antimycin A (port C final 0.5 μM) were added to the corresponding ports of the hydrated sensor cartridge. Then the cartridge was transferred to the Seahorse analyzer (Agilent Technologies) to calibrate the period for approximately 20 min. When the calibration has been completed, the utility plate was removed and the cell miniplate was placed to start the assay. The assay was divided into four parts. After the equilibration period was three basal assays, and then oligomycin was added to inhibit the complex V (ATP synthase) for three cycles, FCCP was followed to stimulate maximal respiration in mitochondria by uncoupling ATP synthesis from electron transport. Lastly, rotenone plus antimycin A was added to determine the non-mitochondrial respiratory rate. Oxygen consumption rate (OCR) was used to assess the mitochondrial respiratory change.

BEAS-2B cells [2] = assay: Seahorse substrate oxidation stress test (glucose / fatty acid oxidation); settings: for maximal respiration of cells with oxidation inhibitor: cells with or without PM2.5
Method: as §2
The substrate oxidation stress test was used to assess the specific mitochondrial substrates that were relevant or required for cellular phenotype and function. Two different inhibitors (UK50099 for the glucose pathway and etomoxir for the long-chain fatty acids pathway) were added before the Mito stress test and the following process was the same with the Mito stress test.

Phospho1 = assay: qPCR gene expression, Phospho1
Method: (§3) Total RNA was extracted from BEAS-2B cells with RNAiso plus kit (TaKaRa, Shiga, Japan) according to the manufacturer's instructions. Reverse transcription of cDNA synthesis and real-time quantitative polymerase chain reaction (qPCR) were performed as described previously. All primers synthesized at BGI Co., Ltd. (Hong Kong, China) were described in Table 2.

BEAS-2B cells [3] = assay: Cell viability (CCK-8) of BEAS-2B cells given metabolic markers, then PM2.5; settings: metabolite 25-200 μM for 24 h, then 200 μg/mL PM2.5 for 24 h
Method: as §1

PGC-1α = assay: qPCR gene expression, PGC-1α; settings: repressed by PM2.5 exposure
Method: as §3

OGT = assay: qPCR gene expression, OGT; settings: after PM2.5 exposure
Method: as §3

GFAT = assay: qPCR gene expression, GFAT; settings: after exposure to PM2.5
Method: as §3

| Compound | ATP production (BEAS-2B cells [1]) | basal respiration (BEAS-2B cells [1]) | maximal respiration (BEAS-2B cells [1]) | cell viability reduced by PM2.5 exposure (BEAS-2B cells [3]) | other results |
| --- | --- | --- | --- | --- | --- |
| CC(=O)N[C@@H](CC(=O)O)C(=O)O [NAA, N-acetyl-aspartic acid] | significantly increase | significantly increase | significantly increase |  |  |
| C[N+](C)(C)CCOP(=O)([O-])O [Pc, phosphocholine] | significantly increase | significantly increase | significantly increase | improve the cell viability | maximal respiration, fatty acid oxidation test (BEAS-2B cells [2]; only in the PM2.5-exposed lung cells): significantly increased; effect against adverse impacts of the TY1 panel on mitochondrial functions (BEAS-2B cells [1]; cells exposed to TY1): protective effects; Phospho1 expression (Phospho1; after PM2.5 exposure): greatly downregulated; Phospho1 expression (Phospho1; normal cells): no effects; PGC-1α expression (PGC-1α): rescued |
| N#C/C(=C\c1cn(-c2ccccc2)c2ccccc12)C(=O)O [UK5099, reference compound] |  |  |  |  | maximal respiration of cells with oxidation inhibitor (BEAS-2B cells [2]): remarkably reduced |
| CN(CC(=O)O)C(=N)N [creatine] |  |  |  | improve the cell viability |  |
| CCOC(=O)[C@@]1(CCCCCCOc2ccc(Cl)cc2)CO1 [etomoxir, reference compound] |  |  |  |  | maximal respiration of cells with oxidation inhibitor (BEAS-2B cells [2]): did not change |
| NCCS(=O)(=O)O [taurine] |  |  |  | improve the cell viability |  |
| uridine diphosphate N-acetylglucosamine [UDP-GlcNAc] | significantly increase | significantly increase | significantly increase |  | increase of cells' glucose oxidation (BEAS-2B cells [2]; cultures with and without PM2.5): 1.6 fold; OGT expression (OGT): partially rescued; GFAT expression (GFAT): interacted with the decline of GFAT |
